SMILES strings stand for the structures. Values joined by “and” are separate entries in the source; they are usually repeats but may differ in a detail not shown here. Identical values can stand only once.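 Compound exposure: 48 hours, 5 concentrations, 96-well plates. At the GI50, growth is halved. At the TGI there is no net growth.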

In PubChem BioAssay (NCI) one finds TGI and GI50 data, which are given here for 12 molecules.

Some test systems named below: M14 melanoma; EKVX NSCLC; OVCAR-5 ovarian; SF-268 CNS; RPMI-8226 leukemia; MDA-MB-231 breast; MCF7 breast; RXF 393 renal; HOP-62 NSCLC; SK-OV-3 ovarian.
Holding throughout (assay): NCI-60 cell line screen, 48 h

Regarding `Cc1sc(Cc2ccccc2)nc1-c1ccc(N)cc1`, the TGI in the experiment with M14 melanoma was 43.7 µM; with EKVX NSCLC, greater than 100 µM; in the experiment on OVCAR-5 ovarian it was greater than 100 µM; in the experiment on SF-268 CNS, greater than 100 µM; in the experiment with RPMI-8226 leukemia, 71.4 µM; in the experiment with MDA-MB-231 breast, 84.8 µM. This molecule had a TGI in the experiment with MCF7 breast of 44.1 µM.

In the case of `NC(=O)CCCC(NCc1c2ccccc2nc2ccccc12)C(=O)O` (stereo unspecified), the TGI in the experiment on M14 melanoma, in the experiment on EKVX NSCLC, in the experiment with OVCAR-5 ovarian, in the experiment on RXF 393 renal, in the experiment with HOP-62 NSCLC and in the experiment on SK-OV-3 ovarian was greater than 100 µM each time. The TGI in the experiment on SF-268 CNS was greater than 100 µM; in the experiment with RPMI-8226 leukemia, 93.6 µM.

On to `O=S(=O)(Sc1ccc(Cl)cc1)c1ccc(Cl)cc1`, for which the TGI amounted to 32.5 µM in the experiment with M14 melanoma; 57.5 µM with EKVX NSCLC; 37.9 µM in the experiment with OVCAR-5 ovarian; 30.1 µM in the experiment with RXF 393 renal; 30.9 µM with HOP-62 NSCLC; 85.2 µM in the experiment with SK-OV-3 ovarian. In addition, the results for the TGI in the experiment on SF-268 CNS and in the experiment on RPMI-8226 leukemia were 21.3 µM and 60.5 µM, respectively.

For the molecule `CC1C(O)C2(Oc3cc4c(c5c3[C@@H](CC5O)[C@H]2C)CCC2Cc3nc5c(nc3C[C@@]42C)CC2CCC3C4=C[C@H]6O[C@@]7(O[C@@](C)(CO)C[C@@H]7O)C(C)[C@@]6(O)[C@]4(C)[C@@H](O)CC3[C@]2(C)C5)OC1(C)C` (stereo partly specified), the TGI is greater than 3.67 µM in the experiment on EKVX NSCLC; 1.32 µM in the experiment on OVCAR-5 ovarian; 0.19 µM with RXF 393 renal; 0.239 µM in the experiment on HOP-62 NSCLC; 0.502 µM with SK-OV-3 ovarian; 0.641 µM in the experiment with SF-268 CNS. For the same molecule, the TGI in the experiment with RPMI-8226 leukemia and in the experiment on MCF7 breast was greater than 3.67 µM each time.

For `O=NC1C(Cl)C2CC1C1C(Br)C(Br)CC21` (stereo unspecified), the TGI in the experiment on M14 melanoma, with EKVX NSCLC, in the experiment on OVCAR-5 ovarian, in the experiment on RXF 393 renal, with HOP-62 NSCLC and in the experiment with SK-OV-3 ovarian was greater than 100 µM each time. In addition, the TGI in the experiment on SF-268 CNS is greater than 100 µM; in the experiment with RPMI-8226 leukemia, 68.6 µM; in the experiment with MDA-MB-231 breast it was greater than 100 µM; in the experiment on MCF7 breast it was greater than 100 µM.

As to `N#CC(c1ccccc1)c1nc2ccc(=N)cc-2n(O)c1C(C#N)c1ccccc1` (stereo unspecified), the TGI with M14 melanoma, in the experiment on EKVX NSCLC, in the experiment with OVCAR-5 ovarian, in the experiment on RXF 393 renal, in the experiment on HOP-62 NSCLC and in the experiment on SK-OV-3 ovarian was greater than 100 µM each time. For the same molecule, the TGI with SF-268 CNS was greater than 100 µM.

Take `CN1CCCCC1CCN1CCCCC1` (stereo unspecified): the TGI in the experiment with M14 melanoma, in the experiment with EKVX NSCLC, in the experiment on OVCAR-5 ovarian, in the experiment on RXF 393 renal, in the experiment on HOP-62 NSCLC and with SK-OV-3 ovarian was greater than 100 µM throughout. The TGI with SF-268 CNS, with RPMI-8226 leukemia, in the experiment on MDA-MB-231 breast and with MCF7 breast was greater than 100 µM in each case.

For `CN(C)CCNc1nc(-c2ccc3ccccc3c2)nc2nc[nH]c12`, the TGI was 23.6 µM in the experiment on M14 melanoma; 19.8 µM in the experiment on EKVX NSCLC; 26 µM with OVCAR-5 ovarian; 24.2 µM with RXF 393 renal; 23.1 µM in the experiment on HOP-62 NSCLC; 20.8 µM with SK-OV-3 ovarian. Also, the TGI in the experiment with SF-268 CNS was 25.1 µM; in the experiment on RPMI-8226 leukemia, greater than 100 µM; in the experiment on MDA-MB-231 breast, 26.5 µM; with MCF7 breast, 20.6 µM.

As for `CN(C)c1ccc(/C=N\NC(=O)CSCC(=O)N/N=C/c2ccc(N(C)C)cc2)cc1`, the TGI was greater than 100 µM in the experiment with M14 melanoma; greater than 100 µM in the experiment on EKVX NSCLC; greater than 100 µM in the experiment on OVCAR-5 ovarian; 81.5 µM with RXF 393 renal; greater than 100 µM with HOP-62 NSCLC; greater than 100 µM in the experiment with SK-OV-3 ovarian. Besides, the TGI is greater than 100 µM with SF-268 CNS, greater than 100 µM in the experiment with RPMI-8226 leukemia, 58.6 µM with MDA-MB-231 breast and greater than 100 µM in the experiment with MCF7 breast.

In the case of `CC12CCC(C(=O)OC1=O)C(C)(C)O2` (stereo unspecified), the TGI in the experiment with M14 melanoma, in the experiment with EKVX NSCLC, in the experiment with OVCAR-5 ovarian, with RXF 393 renal, in the experiment on HOP-62 NSCLC and in the experiment on SK-OV-3 ovarian was greater than 100 µM throughout. Further, the TGI in the experiment on SF-268 CNS, with RPMI-8226 leukemia and in the experiment with MCF7 breast was greater than 100 µM in each case.

For `Cc1cc(NCc2cc(Nc3ccnc4cc(Cl)ccc34)ccc2F)nc(N2CCCC2)n1`, the GI50 with EKVX NSCLC was 2.43 µM; in the experiment with RXF 393 renal, 1.45 µM; with HOP-62 NSCLC, 1.42 µM; in the experiment with SK-OV-3 ovarian, 2.04 µM. For the same molecule, the TGI in the experiment with EKVX NSCLC came out at 11.1 µM; in the experiment on RXF 393 renal it was 2.99 µM; with HOP-62 NSCLC, 3.14 µM; in the experiment with SK-OV-3 ovarian, 5.09 µM.

`Cc1c2cc[n+](CCN3CCCCC3)cc2c(C)c2c1[nH]c1ccc(O)cc12`: the TGI is 50.4 µM in the experiment with M14 melanoma; 24.6 µM and 51.5 µM with EKVX NSCLC; 62.4 µM and > 77.3 µM with OVCAR-5 ovarian; 23.6 µM and 16 µM in the experiment on RXF 393 renal; 13 µM and 18.3 µM with HOP-62 NSCLC; 33.9 µM and 31.2 µM in the experiment on SK-OV-3 ovarian. The TGI in the experiment on SF-268 CNS is 29.6 µM and 25.7 µM; in the experiment with RPMI-8226 leukemia it was 23.3 µM and 11.6 µM; with MDA-MB-231 breast it was 34.7 µM; in the experiment with MCF7 breast it was 39.7 µM and 11.5 µM. In addition, the GI50 in the experiment on EKVX NSCLC was 7.83 µM; in the experiment on OVCAR-5 ovarian, 25.2 µM; in the experiment on RXF 393 renal, 3.09 µM; in the experiment with SK-OV-3 ovarian, 4.42 µM; in the experiment on SF-268 CNS, 2.29 µM; with RPMI-8226 leukemia, 1.74 µM.
